Reference: article PMC10495264 (Nature Cell Biology, 2023)
Several values for one entry are separate records, joined by “and”; a condition that tells them apart may be missing. Identical values can stand only once.

What was measured:
mTORC1 [1] = assay: mTORC1 activity in HEK293FT cells (WT and knockout lines), phosphorylation of S6K, 4E-BP1, Grb10, TFEB by immunoblot; format: cell-based, human
Description: Data represent the median fluorescence intensity of OPP Alexa Fluor 488; n = 6 biological replicates from two independent experiments. b,c,e,g,i,k,l, Data are the mean ± s.e.m. *P < 0.05, **P < 0.005, ***P < 0.0005. […] Source numerical data and unprocessed blots are provided. Source data
(§1) Amino-acid-starvation experiments were carried out as described before[42],[43]. […] For the lipid depletion experiments, cells were cultured in medium containing 10% charcoal-stripped FBS (A3382101, Thermo Fisher Scientific), instead of full FBS, for 24 h before treatments with FASN inhibitors were performed. For FA supplementation, each FA was first conjugated to 10% FA-free BSA (fraction V; cat. no. 10735086001, Roche) for 1 h at 50 °C in a 50:50 volumetric ratio. The BSA-conjugated C16:0, C16:1, C18:1 and C18:2 FAs (100 μM) were then added to the media both 16 h previous to and at the start of the treatment with FASN inhibitors.
(§2) For standard SDS–PAGE and immunoblotting experiments, cells from a well of a 12-well plate were lysed in 250 μl of ice-cold Triton lysis buffer (50 mM Tris pH 7.5, 1% Triton X-100, 150 mM NaCl, 50 mM NaF, 2 mM Na-vanadate and 0.011 g ml^−1 β-glycerophosphate) supplemented with 1×PhosSTOP phosphatase inhibitors (cat. no. 4906837001, Roche) and 1×cOmplete protease inhibitors (cat. no. 11836153001, Roche) for 10 min on ice. The samples were clarified by centrifugation (20,000g, 15 min, 4 °C) and the supernatants were boiled in 1×SDS sample buffer (5×SDS sample buffer: 350 mM Tris–HCl pH 6.8, 30% glycerol, 600 mM DTT, 12.8% SDS and 0.12% bromophenol blue). The band intensities were quantified using the ImageJ software.

mTORC2 = mTORC2 activity in HEK293FT cells, p-AKT^S473/AKT immunoblot; format: cell-based, human
Description: Phosphorylation of Ypk1 was used as the TORC2 readout. Phosphorylation of Snf1 was used as the AMPK activation readout. Total Snf1 was detected with an antibody to a histidine (His) stretch in Snf1. […] Source numerical data and unprocessed blots are provided. Source data
as §1, §2

mTORC1 [2] = assay: mTORC1 activity in HEK293T cells (WT, AMPKα1/2 KO, DEPDC5 and RagA/B triple KO), p-S6K^T389/S6K immunoblot; format: cell-based, human
Description: Source numerical data and unprocessed blots are provided. Source data
as §2
Data in graphs are shown as the mean ± s.e.m. *P < 0.05, **P < 0.005, ***P < 0.0005. Source numerical data and unprocessed blots are provided. Source data

mTORC1 [3] = assay: mTORC1 activity in mouse embryonic fibroblasts (MEFs), p-S6K^T389/S6K immunoblot; format: cell-based; details: for p-S6K(T389)/S6K, Mean: ED Fig. 4e, relative to DMSO
mTORC1 [4] = assay: mTORC1 activity in U2OS cells, immunoblot; format: cell-based, human; details: Fasnall 25 μM 30 min; cerulenin 50 μM 2 or 4 h
AMPK = AMPK and ACC1 phosphorylation immunoblot; format: cell-based, human; details: relative to DMSO
Description: as §2
(§3) Data in graphs are shown as the mean ± s.e.m. *P < 0.05, **P < 0.005. Source numerical data and unprocessed blots are provided. Source data

ERK1/2 = ERK1/2 phosphorylation immunoblot; format: cell-based, human; details: ED Fig. 5m; relative to DMSO
Description: as §2, §3

[5] = test system: mTOR lysosomal localization; assay: Co-localization of mTOR with LAMP2, confocal microscopy; format: cell-based, human; details: for mTOR/LAMP2 colocalization (Manders' coefficient), Mean: mean of pooled individual cells (ED Fig. 8d), DMSO mean 0.383214
mTORC1 [6] = target: T1, mTORC1 (Homo sapiens, UniProt P42345); assay: mTORC1 complex stability/composition, mTOR co-immunoprecipitation of Raptor and mLST8; details: cells treated with cerulenin (4 h)
T1 construct: endogenous mTORC1 complexes were purified from HEK293FT cells; endogenous in cells; host or cells: HEK293FT (immunoprecipitation of endogenous mTOR); the 4E-BP1 substrate was made in E. coli BL21 RP
Description: For the mammalian endogenous protein co-immunoprecipitation experiments, cells of a near-confluent 10-cm dish were lysed in CHAPS IP buffer (50 mM Tris pH 7.5, 0.3% CHAPS detergent, 150 mM NaCl, 50 mM NaF, 2 mM Na-vanadate and 0.011 g ml^−1 β-glycerophosphate) supplemented with 1×PhosSTOP phosphatase inhibitors and 1×EDTA-free cOmplete protease inhibitors (11873580001, Roche) for 10 min on ice. The samples were clarified by centrifugation (20,000g, 15 min, 4 °C) and the supernatants were subjected to immunoprecipitation by the addition of 3 μl of each antibody, incubation at 4 °C with rotation for 3 h, followed by incubation (4 °C with rotation) with 30 μl of a pre-washed Protein A agarose bead slurry (cat. no. 11134515001, Roche) for an additional hour. The beads were then washed four times with CHAPS IP wash buffer (50 mM Tris pH 7.5, 0.3% CHAPS detergent, 150 mM NaCl and 50 mM NaF) and boiled in 1×SDS loading buffer. A portion of the samples was kept aside as the input before the addition of antibodies. The samples were analysed by SDS–PAGE and the presence of co-immunoprecipitated proteins was detected by immunoblotting with the appropriate specific antibodies.
To test whether Mal-CoA influences mTORC1 complex stability/composition, 1 mM Mal-CoA lithium salt solution was added to the lysates before the immunoprecipitation of mTOR, as described earlier. […]

[7] = Fasnall 25 μM 30 min, cerulenin 50 μM 4 h

For `C/C=C/C/C=C/CCC(=O)[C@H]1O[C@H]1C(N)=O` [cerulenin], the “p-Grb10(S476)/Grb10, Mean” value (mTORC1 [1]; ED Fig. 3e, relative to DMSO) was 0.6323, the “p-TFEB(S211)/TFEB, Mean” value (mTORC1 [1]; ED Fig. 3f, relative to DMSO) was 0.6501 and the “p-4E-BP1(T37/46)/4E-BP1, Mean” value (mTORC1 [1]; ED Fig. 3g, relative to DMSO) was 0.1632. The “p-S6K(T389)/S6K, Mean” value (mTORC1 [1]; ED Fig. 6b, relative to Luc) was 0.5038, the “mTORC1 activity towards Grb10 and TFEB (cerulenin: also 4E-BP1)” value (mTORC1 [1]; [7]) was “downregulates” and the “mTORC1 activity (phosphorylation of S6K, 4E-BP1, Grb10 and TFEB)” value (mTORC1 [1]; HEK293FT cells, Fasnall, cerulenin or siFASN) was “suppressed”. For the same compound, the “p-S6K(T389)/S6K, Mean” value (mTORC1 [1]; HEK293FT, 50 μM cerulenin 2h, DMSO = 1, n = 8, Fig. 2i) was 0.7401, the “p-S6K(T389)/S6K, Mean” value (mTORC1 [1]; HEK293FT, 50 μM cerulenin 4h, DMSO = 1, n = 8, Fig. 2i) was 0.4346 and the “p-S6K(T389)/S6K, Mean” value (mTORC1 [1]; TSC1 KO HEK293FT, cerulenin 50 μM, 4 h, respective DMSO = 1, n = 3, Fig. 5p) was 0.4527. The “p-S6K(T389)/S6K, Mean” value (mTORC1 [1]; WT HEK293FT, cerulenin 50 μM, 4 h, respective DMSO = 1, n = 3, Fig. 5p) was 0.3623, the “phosphorylation of Akt (mTORC2 substrate)” value (mTORC2; [7]) was “did not significantly alter” and the “p-AKT(S473)/AKT, Mean” value (mTORC2; cerulenin 50 μM, 4 h, DMSO = 1, n = 3, Fig. 3d) was 0.8351. For the same compound, the “p-S6K(T389)/S6K, Mean” value (mTORC1 [2]; ED Fig. 7c, AMPKa1/2 KO, 2h, relative to AMPKa1/2 KO DMSO) was 0.7893, the “p-S6K(T389)/S6K, Mean” value (mTORC1 [2]; ED Fig. 7c, AMPKa1/2 KO, 4h, relative to AMPKa1/2 KO DMSO) was 0.6235 and the “p-S6K(T389)/S6K, Mean” value (mTORC1 [2]; ED Fig. 7c, WT, 2h, relative to WT DMSO) was 0.7439. The “p-S6K(T389)/S6K, Mean” value (mTORC1 [2]; ED Fig. 7c, WT, 4h, relative to WT DMSO) was 0.528, the “p-S6K(T389)/S6K, Mean” value (mTORC1 [2]; ED Fig. 7h, DEPDC5+RagA/B KO, 2h, relative to DEPDC5+RagA/B KO DMSO) was 0.6252 and the “p-S6K(T389)/S6K, Mean” value (mTORC1 [2]; ED Fig. 7h, DEPDC5+RagA/B KO, 4h, relative to DEPDC5+RagA/B KO DMSO) was 0.4969. The “p-S6K(T389)/S6K, Mean” value (mTORC1 [2]; ED Fig. 7h, WT, 2h, relative to WT DMSO) was 0.7136, the “p-S6K(T389)/S6K, Mean” value (mTORC1 [2]; ED Fig. 7h, WT, 4h, relative to WT DMSO) was 0.5404 and the “p-S6K(T389)/S6K, Mean” value (mTORC1 [3]; 2h) was 0.8743. For the same compound, the “p-S6K(T389)/S6K, Mean” value (mTORC1 [3]; 4h) was 0.3448, the “mTORC1 activity in MEFs” value (mTORC1 [3]; Fasnall 25 μM 30 min, cerulenin 50 μM 2 or 4 h) was “downregulates” and the “mTORC1 activity in U2OS” value (mTORC1 [4]) was “downregulates”. For the same compound, the “p-AMPK(T172)/AMPK, Mean” value (AMPK; ED Fig. 5e) was 0.8121, the “p-ACC1(S79)/ACC1, Mean” value (AMPK; ED Fig. 5f) was 1.111 and the “p-ERK(T202/Y204)/ERK, Mean” value (ERK1/2) was 1.697. The “mTOR/LAMP2 colocalization (Manders' coefficient)” value ([5]; Ceru 2h, Replicate 1, individual cells (ED Fig. 8d)) was 0.444 and 0.38 and 0.427 and 0.715 and 0.517 and 0.116 and 0.414 and 0.188 and 0.399 and 0.209 and 0.241 and 0.28 and 0.349 and 0.265 and 0.345 and 0.315 and 0.445 and 0.603 and 0.407 and 0.223 and 0.37 and 0.271 and 0.185, the “mTOR/LAMP2 colocalization (Manders' coefficient)” value ([5]; Ceru 2h, Replicate 3, individual cells (ED Fig. 8d)) was 0.327 and 0.378 and 0.177 and 0.225 and 0.217 and 0.171 and 0.169 and 0.316 and 0.307 and 0.469 and 0.189 and 0.266 and 0.237 and 0.271 and 0.179 and 0.175 and 0.173 and 0.339 and the “mTOR/LAMP2 colocalization (Manders' coefficient), Mean” value ([5]; Ceru 2h) was 0.3276. For the same compound, the “mTOR/LAMP2 colocalization (Manders' coefficient)” value ([5]; Ceru 4h, Replicate 1, individual cells (ED Fig. 8d)) was 0.295 and 0.311 and 0.327 and 0.333 and 0.217 and 0.408 and 0.17 and 0.428 and 0.395 and 0.227 and 0.135 and 0.322 and 0.371 and 0.272 and 0.219 and 0.26 and 0.303, the “mTOR/LAMP2 colocalization (Manders' coefficient)” value ([5]; Ceru 4h, Replicate 3, individual cells (ED Fig. 8d)) was 0.327 and 0.378 and 0.177 and 0.225 and 0.217 and 0.171 and 0.169 and 0.316 and 0.307 and 0.469 and 0.189 and 0.266 and 0.237 and 0.271 and 0.179 and 0.175 and 0.173 and 0.339 and the “mTOR/LAMP2 colocalization (Manders' coefficient), Mean” value ([5]; Ceru 4h) was 0.2619. The “mTOR localization at lysosomes (co-localization with LAMP2)” value ([5]; HEK293FT, 25 μM Fasnall or 50 μM cerulenin) was “significant dissociation” and the “stability and composition of mTORC1” value (mTORC1 [6]) was “not affected”.
